Laboratory results taken from US4642347A, “3(2-quinolinylalkoxy)phenols” (American Home Products Corporation, priority 1985, dated 1987).
pIC50: −log10 of the molar value. “Also recorded” adds a separate entry of the source.

Tests used:
[1] = system: 5-HETE synthesis by rat glycogen-elicited polymorphonuclear leukocytes (5-lipoxygenase); assay: Inhibition of 5-HETE synthesis by rat glycogen-elicited polymorphonuclear leukocytes (A23187, [14C] arachidonic acid); type: cell-based, rat (Wistar); conditions: for pIC50: Leukocyte, rat peritoneal PMN, 5-HETE synthesis, read-out: 50% Inhibitory Concentration (IC50), 5-HETE
Protocol: This is especially true with respect to 5,12-diHETE, which is also denoted as LTB4 [see Ford-Hitchinson, J. Roy. Soc. Med., 74, 831 (1981)]. The assay of this Example measures the ability of the compounds of the invention to inhibit the synthesis of 5-HETE and LTB4 by rat glycogen-elicited polymorphonuclear leukocytes.
(§1) The assay is carried out as follows:
(§2) Peritoneal PMN are obtained from female Wistar rats (150-250 g) that received an i.p. injection of 6% glycogen (10 ml). After 24 hours, rats are killed by CO2 asphyxiation and peritoneal cells are harvested by peritoneal lavage using Ca^++ and Mg^++ free Hanks' balanced salt solution (HBSS). The peritoneal exudate is centrifuged at 400 g for 10 minutes. After centrifugation, the lavaged fluid is removed and the cell pellet is resuspended in HBSS containing Ca^++ and Mg^++ and 10 mM L-cysteine at a concentration of 2×10^7 cells/ml. To 1 ml portions of cell suspension, test drugs or vehicle are added and incubated at 37° C. for 10 minutes. Following this preincubation, the calcium ionophore (10 μM), A23187, is added together with 0.5 μCi [^14 C] arachidonic acid and further incubated for 10 minutes. The reaction is stopped by the addition of ice cold water (3 ml) and acidifying to pH 3.5. Lipoxygenase products are then extracted twice into diethyl ether. The pooled ether extracts are evaporated to dryness under nitrogen and the residue is redissolved in a small volume of methanol and spotted on aluminum backed pre-coated thin layer chromatographic plates. The samples are then co-chromatographed with authentic reference 5-HETE in the solvent system--hexane:ether:acetic acid (50:50:3). After chromatography, the areas associated with 5-HETE standard are identified by autoradiography, cut out and quantitated by liquid scintillation.
Results are expressed as % inhibition of [^14 C]5-HETE synthesis. [formula]

[2] = system: ovalbumin-induced bronchoconstriction; assay: In vivo inhibition of ovalbumin-induced (anaphylactic) bronchoconstriction by endogenous mediators in sensitized guinea pigs; set-up: species or system guinea pig (Hartley); conditions: 50 mg/kg intraduodenally, 10 minutes before i.v. ovalbumin challenge; for % Inhibition: compared to its control (*P < 0.05; ***P < 0.005)
Protocol: The assay of this Example measures the in vivo ability of the compounds of the invention to inhibit the bronchospasm induced in guinea pigs by endogenous mediators of the bronchoconstriction.
as §1
Male Hartley strain guinea pigs weighing 250-350 g are sensitized to chicken ovalbumin (OA) (10 mg i.p.) on days 1 and 3 and used starting on day 26. The animals are anesthetized with pentobarbital sodium (50 mg/kg, i.p.), bilateral vagotomy is performed, and the jugular vein is cannulated for injection of drugs and the carotid artery for monitoring blood pressure. The trachea is cannulated for artificial ventilation by miniature Starling pump and for indirect measurement of respiratory volume changes as described, infra. Succinylcholine (2 mg/kg, i.v.) is administered to arrest spontaneous respiration. A cyclooxygenase inhibitor, indomethacin (10 mg/kg in tris buffer, i.v. at 9 min.) is administered to shunt arachidonic metabolism to lipoxygenase pathways. One minute later, chlorpheniramine (1.0 mg/kg in saline, i.v.) is given to attenuate the histaminic component of anaphylactic bronchoconstriction. Test drugs (dissolved in propylene glycol, polyethylene glycol or saline) are administered either intraduodenally or by aerosol at 2 or 10 minutes before antigen challenge. Anaphylactic bronchoconstriction is induced by administration by breaths of aerosolized OA (1%) or by intravenous administration of 0.1-0.3 mg/kg OA in saline. Control animals receive solvent (2 ml/kg i.d. or appropriate aerosol) in place of drug.
Respiratory volume changes are determined by a calibrated piston whose travel is recorded, via a linear transducer, on a Beckman Dynograph recorder. Maximal bronchoconstrictor volume is determined by clamping off the trachea at the end of the experiment. Overflow volumes at minutes 1, 3 and 5 are obtained from the recorded charts.
Area under the volume overflow curve (AUC) is estimated, using the overflow values at 1, 3 and 5 minutes, and expressed as a percentage of the maximal overflow AUC (equation 1): [formula] Drug effects are reported as percent inhibition of % max AUC values obtained from appropriate control animals (equation 2): [formula] Students t-test for unpaired data is used to determine statistical significance.

[3] = system: leukotrienes C4 and/or D4 induced bronchospasm; assay: In vivo inhibition of bronchospasm induced in guinea pigs by exogenously administered leukotrienes C4 and/or D4; set-up: species or system guinea pig (Hartley); conditions: for % Maximal Bronchoconstriction / % Inhibition: 10 minutes before induction of bronchospasm; for % Inhibition: compared to its control (*P < 0.05; ***P < 0.001); for leukotriene antagonism (in words): summary of guinea pig results
[4] = system: PGE2 synthesis (cyclooxygenase); assay: Inhibition of synthesis of PGE2 by rat polymorphonuclear leukocytes; type: cell-based, rat (Wistar); conditions: for pIC50: Leukocyte, PGE2, read-out: 50% Inhibitory Concentration (IC50), Inhibition of Synthesis of PGE2; for pIC50 / influence on the synthesis of PGE2 (in words): rat PMN; for cyclooxygenase inhibitory activity (in words): conclusion from TxB2 and PGE2 results
Protocol: as §2
(§3) The procedure of Example 2 is also employed for the determination of the ability of the compounds of the invention to inhibit the synthesis of the arachidonic acid cyclooxygenase oxidation products TxB2 and PGE2.
In this assay, the procedure of Example 2 is carried out as described. However, in order to determine cyclooxygenase activity, the samples are cochromatographed with authentic reference TxB2 and PGE2 in the solvent system ethyl acetate:formic acid (80:1) and the upper phase of ethyl acetate:isoctane:acetic acid:water (110:50:20:100). After chromatography, the areas associated with TxB2 and PGE2 standards are identified by autoradiography, cut out and quantitated by liquid scintillation techniques.
(§4) The results are calculated as in Example 2 and presented below.

[5] = system: TxB2 synthesis (cyclooxygenase); assay: Inhibition of synthesis of TxB2 by rat polymorphonuclear leukocytes; type: cell-based, rat (Wistar); conditions: for pIC50: Leukocyte, rat PMN, TxB2, read-out: % Inhibitory Concentration (IC50), Inhibition of Synthesis of TxB2
Protocol: as §2, §3
In this assay, the procedure of Example 2 is carried out as described. […] After chromatography, the areas associated with TxB2 and PGE2 standards are identified by autoradiography, cut out and quantitated by liquid scintillation techniques.
as §4

| pIC50 [1] | pIC50 [4] | influence on the synthesis of PGE2 (in words) [4] | pIC50 [5] | potency in inhibiting TxB2 synthesis relative to the compound of Example 1 ([5]; as potent as the compound of Example 1) | Compound | % Maximal Bronchoconstriction [2] [%] | % Inhibition [2] [%] | % Maximal Bronchoconstriction ([3]; 50 mg/kg intraduodenally) [%] | % Inhibition ([3]; 50 mg/kg intraduodenally) [%] | leukotriene antagonism (in words) [3] | cyclooxygenase inhibitory activity (in words) [4] | 5-lipoxygenase inhibition (in words) ([1]; conclusion from Example 2) | potency in inhibiting the synthesis of 5-HETE relative to the prior art compound ([1]; rat peritoneal neutrophils, more potent than the prior art compound) | potency as inhibitor of LTD4-induced bronchoconstriction relative to the prior art compound ([3]; times more potent than the prior art compound, 50 mg/kg intraduodenally) |
| --- | --- | --- | --- | --- | --- | --- | --- | --- | --- | --- | --- | --- | --- | --- |
| 4.28 | 5.24 | quite significantly active | 5.17 | twice as potent | Oc1ccccc1OCc1ccc2ccccc2n1 [2-(2-quinolinylmethoxy)phenol, reference compound] | 31 ± 6 | 47 | 43 ± 6 | 28 | ability to block leukotriene responses | potent activity as a cyclooxygenase inhibitor | – | – | – |
| 5.22 | < 4.00 | failure | 4.84 | – | Oc1cccc(OCc2ccc3ccccc3n2)c1 [Example 1, 3-(2-Quinolinylmethoxyl)phenol] | 21 ± 8 | 53 | 10 ± 1 | 82 | potent leukotriene antagonist | little or no significant cyclooxygenase inhibitory activity | very potent 5-lipoxygenase inhibitor; also recorded: significant 5-lipoxygenase inhibition; also recorded: strong inhibitor of 5-lipoxygenase | approximately an order of magnitude more potent | approximately three |
